Experimental data published in patent publication US9790178B2, “Pyrrolidinyl urea, thiourea, guanidine and cyanoguanidine compounds as TrkA kinase inhibitors” (Array BioPharma Inc., priority 2012, dated 2017).

What was measured:
Assay in all cases: KinaseProfiler off-target kinase profiling
Type in all cases: biochemical
Conditions in all cases: 10 μM, ATP near Km
TrkA = target: T1, TrkA (Homo sapiens, UniProt P04629)
T1 construct: purchased Millipore, Inc. (KinaseProfiler service)
Procedure: (§1) A representative compound of the invention (Example 20) was tested for off-target kinase activity at a concentration of 10 μM by Millipore, Inc. in their KinaseProfiler™ service against all the kinases available in their full kinase panel. The compound was run in duplicate at a concentration of ATP near the Km for each individual kinase according to Millipore's specifications. The results are shown in Table B. Data are reported as percent of control (POC) and are the average of the two replicates.

PAK2 = target: T2, PAK2 (Homo sapiens, UniProt Q13177)
T2 construct: purchased Millipore, Inc. (KinaseProfiler service)
Procedure: as §1

MINK = target: T3, MINK (Homo sapiens, UniProt Q8N4C8)
T3 construct: purchased Millipore, Inc. (KinaseProfiler service)
Procedure: as §1

NEK2 = target: T4, NEK2 (Homo sapiens, UniProt P51955)
T4 construct: purchased Millipore, Inc. (KinaseProfiler service)
Procedure: as §1

WNK3 = target: T5, WNK3 (Homo sapiens, UniProt Q9BYP7)
T5 construct: purchased Millipore, Inc. (KinaseProfiler service)
Procedure: as §1

Rsk1 = target: T6, Rsk1 (Homo sapiens, UniProt Q15418)
T6 construct: purchased Millipore (KinaseProfiler service)
Procedure: as §1

IRAK4 = target: T7, IRAK4 (Homo sapiens, UniProt Q9NWZ3)
T7 construct: purchased Millipore, Inc. (KinaseProfiler service)
Procedure: as §1

BrSK1 = target: T8, BrSK1 (Homo sapiens, UniProt Q8TDC3)
T8 construct: purchased Millipore, Inc. (KinaseProfiler service)
Procedure: as §1

p38gamma = target: T9, p38gamma (Homo sapiens, UniProt P53778)
T9 construct: purchased Millipore, Inc. (KinaseProfiler service)
T9 sequence (P53778 whole entry): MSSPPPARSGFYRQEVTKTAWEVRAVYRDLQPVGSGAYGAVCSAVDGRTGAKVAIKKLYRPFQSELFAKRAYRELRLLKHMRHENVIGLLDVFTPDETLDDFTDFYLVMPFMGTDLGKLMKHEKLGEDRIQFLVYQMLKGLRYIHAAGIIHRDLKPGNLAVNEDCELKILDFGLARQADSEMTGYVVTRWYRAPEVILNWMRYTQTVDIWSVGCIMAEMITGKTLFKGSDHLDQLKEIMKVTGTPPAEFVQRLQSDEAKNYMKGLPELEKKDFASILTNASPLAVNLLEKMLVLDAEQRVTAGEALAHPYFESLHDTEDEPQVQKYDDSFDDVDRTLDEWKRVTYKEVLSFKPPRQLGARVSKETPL
Procedure: as §1

MAPKAP-K2 = target: T10, MAPKAP-K2 (Homo sapiens, UniProt P49137)
T10 construct: purchased Millipore, Inc. (KinaseProfiler service)
T10 sequence (P49137 whole entry): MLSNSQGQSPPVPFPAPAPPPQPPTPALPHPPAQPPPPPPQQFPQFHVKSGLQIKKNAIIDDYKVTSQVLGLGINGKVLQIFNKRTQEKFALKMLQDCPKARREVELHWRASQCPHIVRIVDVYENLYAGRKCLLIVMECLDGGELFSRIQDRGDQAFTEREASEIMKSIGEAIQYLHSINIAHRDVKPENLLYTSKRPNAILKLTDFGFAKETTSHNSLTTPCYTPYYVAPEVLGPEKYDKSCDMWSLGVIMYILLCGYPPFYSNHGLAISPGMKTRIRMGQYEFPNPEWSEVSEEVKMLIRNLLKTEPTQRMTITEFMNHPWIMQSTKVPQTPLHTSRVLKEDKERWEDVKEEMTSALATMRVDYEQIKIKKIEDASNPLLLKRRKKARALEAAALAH
Procedure: as §1

Syk = target: T11, Syk (Homo sapiens, UniProt P43405)
T11 construct: purchased Millipore, Inc. (KinaseProfiler service)
Procedure: as §1

Ron = target: T12, Ron (Homo sapiens, UniProt Q04912)
T12 construct: purchased Millipore (KinaseProfiler service)
Procedure: as §1

KDR = target: T13, KDR (Homo sapiens, UniProt P35968)
T13 construct: purchased Millipore, Inc. (KinaseProfiler service)
Procedure: as §1

Ret = target: T14, Ret (Homo sapiens, UniProt P07949)
T14 construct: purchased Millipore (KinaseProfiler service)
Procedure: as §1

MSK2 = target: T15, MSK2 (Homo sapiens, UniProt O75676)
T15 construct: purchased Millipore, Inc. (KinaseProfiler service)
Procedure: as §1

PRK2 = target: T16, PRK2 (Homo sapiens, UniProt Q16513)
T16 construct: purchased Millipore (KinaseProfiler service)
T16 sequence (Q16513 whole entry): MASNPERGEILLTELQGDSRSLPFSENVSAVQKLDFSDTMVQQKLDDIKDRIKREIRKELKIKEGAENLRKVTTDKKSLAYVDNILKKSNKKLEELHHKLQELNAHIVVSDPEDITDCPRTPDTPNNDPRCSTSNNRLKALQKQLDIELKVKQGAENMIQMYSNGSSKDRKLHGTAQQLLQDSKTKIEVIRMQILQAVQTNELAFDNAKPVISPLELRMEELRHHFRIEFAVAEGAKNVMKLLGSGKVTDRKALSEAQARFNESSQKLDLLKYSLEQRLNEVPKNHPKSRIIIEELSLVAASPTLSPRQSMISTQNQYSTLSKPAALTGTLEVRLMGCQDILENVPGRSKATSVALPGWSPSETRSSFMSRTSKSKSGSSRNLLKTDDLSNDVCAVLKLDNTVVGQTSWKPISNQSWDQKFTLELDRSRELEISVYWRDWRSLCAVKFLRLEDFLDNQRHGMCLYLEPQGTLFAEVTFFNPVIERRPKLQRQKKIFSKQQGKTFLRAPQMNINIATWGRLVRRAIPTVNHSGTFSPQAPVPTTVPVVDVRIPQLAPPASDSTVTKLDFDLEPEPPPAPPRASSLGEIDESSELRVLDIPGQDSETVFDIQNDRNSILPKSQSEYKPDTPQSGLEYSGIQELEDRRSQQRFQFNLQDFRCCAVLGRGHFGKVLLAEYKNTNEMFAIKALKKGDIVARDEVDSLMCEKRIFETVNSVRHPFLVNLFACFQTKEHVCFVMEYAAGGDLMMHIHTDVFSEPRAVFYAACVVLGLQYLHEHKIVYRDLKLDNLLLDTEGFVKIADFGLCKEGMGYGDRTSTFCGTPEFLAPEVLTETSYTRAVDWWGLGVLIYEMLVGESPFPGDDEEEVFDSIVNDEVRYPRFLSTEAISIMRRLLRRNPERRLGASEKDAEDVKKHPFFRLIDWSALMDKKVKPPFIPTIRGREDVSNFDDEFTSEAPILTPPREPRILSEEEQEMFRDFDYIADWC
Procedure: as §1

EphA5 = target: T17, EphA5 (Homo sapiens, UniProt P54756)
T17 construct: purchased Millipore, Inc. (KinaseProfiler service)
Procedure: as §1

EphA3 = target: T18, EphA3 (Homo sapiens, UniProt P29320)
T18 construct: purchased Millipore, Inc. (KinaseProfiler service)
Procedure: as §1

TAO3 = target: T19, TAO3 (Homo sapiens, UniProt Q9H2K8)
T19 construct: purchased Millipore, Inc. (KinaseProfiler service)
Procedure: as §1

eEF-2K = target: T20, eEF-2K (Homo sapiens, UniProt O00418)
T20 construct: purchased Millipore, Inc. (KinaseProfiler service)
Procedure: as §1

JNK3 = target: T21, JNK3 (Homo sapiens, UniProt P53779)
T21 construct: purchased Millipore, Inc. (KinaseProfiler service)
Procedure: as §1

AURKA = target: T22, AURKA (Homo sapiens, UniProt O14965)
T22 construct: purchased Millipore, Inc. (KinaseProfiler service)
Procedure: as §1

Pim-1 = target: T23, Pim-1 (Homo sapiens, UniProt P11309)
T23 construct: purchased Millipore, Inc. (KinaseProfiler service)
Procedure: as §1

FGFR4 = target: T24, FGFR4 (Homo sapiens, UniProt P22455)
T24 construct: purchased Millipore, Inc. (KinaseProfiler service)
Procedure: as §1

Fer = target: T25, Fer (Homo sapiens, UniProt P16591)
T25 construct: purchased Millipore, Inc. (KinaseProfiler service)
T25 sequence (P16591 whole entry): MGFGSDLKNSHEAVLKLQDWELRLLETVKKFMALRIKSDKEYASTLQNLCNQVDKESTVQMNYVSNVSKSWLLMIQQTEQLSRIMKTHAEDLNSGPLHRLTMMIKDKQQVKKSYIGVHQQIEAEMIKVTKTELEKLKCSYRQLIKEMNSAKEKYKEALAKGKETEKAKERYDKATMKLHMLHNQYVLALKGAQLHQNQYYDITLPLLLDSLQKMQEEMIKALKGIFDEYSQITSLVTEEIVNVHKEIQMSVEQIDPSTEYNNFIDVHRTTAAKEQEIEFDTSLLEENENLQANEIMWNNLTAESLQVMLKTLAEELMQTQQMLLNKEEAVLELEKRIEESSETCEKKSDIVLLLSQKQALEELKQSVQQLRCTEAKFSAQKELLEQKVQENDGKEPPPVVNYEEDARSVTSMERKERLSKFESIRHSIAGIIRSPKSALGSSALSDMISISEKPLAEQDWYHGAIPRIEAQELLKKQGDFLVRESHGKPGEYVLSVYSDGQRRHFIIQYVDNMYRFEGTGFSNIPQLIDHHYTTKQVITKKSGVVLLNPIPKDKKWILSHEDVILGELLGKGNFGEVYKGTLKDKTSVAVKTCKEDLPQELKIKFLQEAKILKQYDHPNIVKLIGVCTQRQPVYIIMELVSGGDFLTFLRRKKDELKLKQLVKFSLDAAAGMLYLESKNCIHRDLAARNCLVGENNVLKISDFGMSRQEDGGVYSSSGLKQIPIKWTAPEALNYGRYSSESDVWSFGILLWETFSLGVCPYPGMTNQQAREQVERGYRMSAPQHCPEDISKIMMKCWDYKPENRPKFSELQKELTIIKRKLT
Procedure: as §1

WNK2 = target: T26, WNK2 (Homo sapiens, UniProt Q9Y3S1)
T26 construct: purchased Millipore, Inc. (KinaseProfiler service)
Procedure: as §1

TSSK1 = target: T27, TSSK1 (Homo sapiens, UniProt Q9BXA7)
T27 construct: purchased Millipore, Inc. (KinaseProfiler service)
Procedure: as §1

IRAK1 = target: T28, IRAK1 (Homo sapiens, UniProt P51617)
T28 construct: purchased Millipore, Inc. (KinaseProfiler service)
Procedure: as §1

SRC = target: T29, SRC (Homo sapiens, UniProt P12931)
T29 construct: purchased Millipore, Inc. (KinaseProfiler service)
Procedure: as §1

JAK3 = target: T30, JAK3 (Homo sapiens, UniProt P52333)
T30 construct: purchased Millipore, Inc. (KinaseProfiler service)
Procedure: as §1

c-RAF = system: c-RAF
Procedure: as §1

CAMK2b = target: T31, CAMK2b (Homo sapiens, UniProt Q13554)
T31 construct: purchased Millipore, Inc. (KinaseProfiler service)
Procedure: as §1

BTK = target: T32, BTK (Homo sapiens, UniProt Q06187)
T32 construct: purchased Millipore, Inc. (KinaseProfiler service)
Procedure: as §1

Fyn = target: T33, Fyn (Homo sapiens, UniProt P06241)
T33 construct: purchased Millipore, Inc. (KinaseProfiler service)
Procedure: as §1

VRK2 = target: T34, VRK2 (Homo sapiens, UniProt Q86Y07)
T34 construct: purchased Millipore, Inc. (KinaseProfiler service)
T34 sequence (Q86Y07 whole entry): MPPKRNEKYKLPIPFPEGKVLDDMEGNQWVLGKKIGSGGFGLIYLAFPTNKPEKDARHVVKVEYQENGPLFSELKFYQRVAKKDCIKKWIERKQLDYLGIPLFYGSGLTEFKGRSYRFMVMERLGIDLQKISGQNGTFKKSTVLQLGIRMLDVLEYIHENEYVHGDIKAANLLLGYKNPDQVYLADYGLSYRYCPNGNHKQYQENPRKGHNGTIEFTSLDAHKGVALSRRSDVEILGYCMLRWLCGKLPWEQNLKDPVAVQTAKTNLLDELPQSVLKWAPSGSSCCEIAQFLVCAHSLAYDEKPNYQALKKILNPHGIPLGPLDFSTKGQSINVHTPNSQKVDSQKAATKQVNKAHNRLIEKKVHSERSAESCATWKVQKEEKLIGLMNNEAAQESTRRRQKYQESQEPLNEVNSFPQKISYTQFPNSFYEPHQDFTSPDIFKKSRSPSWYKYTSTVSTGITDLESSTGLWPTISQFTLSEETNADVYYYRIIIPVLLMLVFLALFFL
Procedure: as §1

PKAC-alpha = target: T35, PKAC-alpha (Homo sapiens, UniProt P17612)
T35 construct: purchased Millipore, Inc. (KinaseProfiler service)
Procedure: as §1

CDK5/p25 = target: T36, CDK5/p25 (Homo sapiens, UniProt Q00535)
T36 construct: purchased Millipore, Inc. (KinaseProfiler service)
T36 sequence (Q00535 whole entry): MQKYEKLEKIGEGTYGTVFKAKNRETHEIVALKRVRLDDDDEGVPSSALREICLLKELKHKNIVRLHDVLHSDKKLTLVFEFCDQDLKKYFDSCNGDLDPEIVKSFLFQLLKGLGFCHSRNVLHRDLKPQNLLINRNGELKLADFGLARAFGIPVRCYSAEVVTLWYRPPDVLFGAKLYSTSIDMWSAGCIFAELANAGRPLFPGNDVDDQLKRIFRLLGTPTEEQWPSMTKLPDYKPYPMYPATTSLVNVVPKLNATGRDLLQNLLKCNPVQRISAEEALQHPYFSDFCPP
T36 sequence (Q15078 99-307 partner limits assumed): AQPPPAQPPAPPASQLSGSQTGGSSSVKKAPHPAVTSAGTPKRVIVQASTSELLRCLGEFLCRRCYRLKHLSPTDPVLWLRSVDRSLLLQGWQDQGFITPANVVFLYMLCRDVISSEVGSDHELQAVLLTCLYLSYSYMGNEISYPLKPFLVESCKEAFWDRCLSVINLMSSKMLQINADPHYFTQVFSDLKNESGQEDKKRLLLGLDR
Procedure: as §1

MSSK1 = target: T37, MSSK1 (Homo sapiens, UniProt Q9UPE1)
T37 construct: purchased Millipore, Inc. (KinaseProfiler service)
T37 sequence (Q9UPE1 whole entry): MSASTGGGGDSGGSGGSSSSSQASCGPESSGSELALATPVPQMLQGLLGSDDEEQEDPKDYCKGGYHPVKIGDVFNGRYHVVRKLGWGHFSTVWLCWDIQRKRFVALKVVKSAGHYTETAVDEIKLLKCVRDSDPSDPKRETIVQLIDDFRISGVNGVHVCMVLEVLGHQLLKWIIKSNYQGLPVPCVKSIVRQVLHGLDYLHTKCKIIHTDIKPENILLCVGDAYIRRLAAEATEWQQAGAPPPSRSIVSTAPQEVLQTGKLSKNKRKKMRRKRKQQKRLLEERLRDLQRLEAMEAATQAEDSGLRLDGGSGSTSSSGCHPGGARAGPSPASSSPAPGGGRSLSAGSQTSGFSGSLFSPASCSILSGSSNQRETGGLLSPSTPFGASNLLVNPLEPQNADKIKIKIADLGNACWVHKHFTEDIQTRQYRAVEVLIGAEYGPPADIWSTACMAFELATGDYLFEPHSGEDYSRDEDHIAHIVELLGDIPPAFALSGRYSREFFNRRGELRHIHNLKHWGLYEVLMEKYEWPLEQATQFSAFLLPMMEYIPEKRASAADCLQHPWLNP
Procedure: as §1

p38alpha = target: T38, p38alpha (Homo sapiens, UniProt Q16539)
T38 construct: purchased Millipore, Inc. (KinaseProfiler service)
Procedure: as §1

PKCepsilon = target: T39, PKCepsilon (Homo sapiens, UniProt Q02156)
T39 construct: purchased Millipore, Inc. (KinaseProfiler service)
T39 sequence (Q02156 whole entry): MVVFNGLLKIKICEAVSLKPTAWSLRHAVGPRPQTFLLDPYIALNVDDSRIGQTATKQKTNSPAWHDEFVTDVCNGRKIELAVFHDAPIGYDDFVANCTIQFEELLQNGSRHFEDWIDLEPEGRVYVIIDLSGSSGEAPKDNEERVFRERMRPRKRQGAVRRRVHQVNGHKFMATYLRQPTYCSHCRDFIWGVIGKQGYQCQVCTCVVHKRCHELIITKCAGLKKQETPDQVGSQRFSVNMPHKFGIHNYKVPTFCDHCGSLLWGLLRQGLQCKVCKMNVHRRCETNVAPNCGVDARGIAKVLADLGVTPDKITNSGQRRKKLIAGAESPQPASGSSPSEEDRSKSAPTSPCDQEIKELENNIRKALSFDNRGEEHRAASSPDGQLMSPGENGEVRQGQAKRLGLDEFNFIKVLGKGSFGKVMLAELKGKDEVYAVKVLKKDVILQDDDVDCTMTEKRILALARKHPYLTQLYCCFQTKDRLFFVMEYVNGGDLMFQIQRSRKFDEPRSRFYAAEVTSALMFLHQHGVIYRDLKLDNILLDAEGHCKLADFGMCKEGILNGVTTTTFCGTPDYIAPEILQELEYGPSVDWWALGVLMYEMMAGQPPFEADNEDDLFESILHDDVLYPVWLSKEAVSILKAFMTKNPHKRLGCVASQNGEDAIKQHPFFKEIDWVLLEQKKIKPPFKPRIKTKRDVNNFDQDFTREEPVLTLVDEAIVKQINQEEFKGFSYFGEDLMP
Procedure: as §1

Plk1 = target: T40, Plk1 (Homo sapiens, UniProt P53350)
T40 construct: purchased Millipore (KinaseProfiler service)
Procedure: as §1

Lck = target: T41, Lck (Homo sapiens, UniProt P06239)
T41 construct: purchased Millipore, Inc. (KinaseProfiler service)
Procedure: as §1

`COCCN1C[C@@H](NC(=O)Nc2c(-c3ccccc3)nc3c(C)nccn23)[C@H](c2ccc(F)c(F)c2)C1` [Example 20, 1-((3S,4R)-4-(3,4-difluorophenyl)-1-(2-methoxyethyl)pyrrolidin-3-yl)-3-(8-methyl-2-phenylimidazo[1,2-a]pyrazin-3-yl)urea] was tested, and the “Avg. POC” value (TrkA) was 0 POC, the “Avg. POC” value (PAK2) was 100.5 POC and the “Avg. POC” value (MINK) was 99 POC. For the same molecule, the “Avg. POC” value (NEK2) was 91 POC, the “Avg. POC” value (WNK3) was 115.5 POC and the “Avg. POC” value (Rsk1) was 115 POC. For the same molecule, the “Avg. POC” value (IRAK4) was 124 POC, the “Avg. POC” value (BrSK1) was 112.5 POC and the “Avg. POC” value (p38gamma) was 105.5 POC. For the same molecule, the “Avg. POC” value (MAPKAP-K2) was 106.5 POC, the “Avg. POC” value (Syk) was 99.5 POC and the “Avg. POC” value (Ron) was 100 POC. For the same molecule, the “Avg. POC” value (KDR) was 107 POC, the “Avg. POC” value (Ret) was 97.5 POC and the “Avg. POC” value (MSK2) was 126 POC. The “Avg. POC” value (PRK2) was 104 POC, the “Avg. POC” value (EphA5) was 123 POC and the “Avg. POC” value (EphA3) was 98 POC. For the same molecule, the “Avg. POC” value (TAO3) was 103 POC, the “Avg. POC” value (eEF-2K) was 108 POC and the “Avg. POC” value (JNK3) was 124.5 POC. The “Avg. POC” value (AURKA) was 118 POC, the “Avg. POC” value (Pim-1) was 105 POC and the “Avg. POC” value (FGFR4) was 90 POC. For the same molecule, the “Avg. POC” value (Fer) was 91.5 POC, the “Avg. POC” value (WNK2) was 120 POC and the “Avg. POC” value (TSSK1) was 107 POC. For the same molecule, the “Avg. POC” value (IRAK1) was 109.5 POC, the “Avg. POC” value (SRC) was 107 POC and the “Avg. POC” value (JAK3) was 115 POC. For the same molecule, the “Avg. POC” value (c-RAF) was 118.5 POC, the “Avg. POC” value (CAMK2b) was 102 POC and the “Avg. POC” value (BTK) was 112.5 POC. The “Avg. POC” value (Fyn) was 128.5 POC, the “Avg. POC” value (VRK2) was 117.5 POC and the “Avg. POC” value (PKAC-alpha) was 114 POC. The “Avg. POC” value (CDK5/p25) was 111 POC, the “Avg. POC” value (MSSK1) was 108.5 POC and the “Avg. POC” value (p38alpha) was 97.5 POC. The “Avg. POC” value (PKCepsilon) was 107.5 POC, the “Avg. POC” value (Plk1) was 104 POC and the “Avg. POC” value (Lck) was 135.5 POC.
